Measurements taken from the NIST ThermoML archive (doi:10.1016/j.jct.2013.03.020).
Where “and” joins values, the source holds several entries; their conditions need not be identical. Equal entries are not always repeated. Numbers after ± are expanded uncertainties.

Details: Liquid, Closed cell (Static) method

| Structure (SMILES) | vapor or sublimation pressure (273.15 K) [kPa] | vapor or sublimation pressure (283.15 K) [kPa] | vapor or sublimation pressure (293.15 K) [kPa] | vapor or sublimation pressure (303.15 K) [kPa] | vapor or sublimation pressure (313.15 K) [kPa] | vapor or sublimation pressure (323.15 K) [kPa] | vapor or sublimation pressure (333.15 K) [kPa] | vapor or sublimation pressure (343.15 K) | vapor or sublimation pressure (353.15 K) [kPa] | vapor or sublimation pressure (363.15 K) [kPa] | also measured |
| --- | --- | --- | --- | --- | --- | --- | --- | --- | --- | --- | --- |
| CN(C)CCO [2-(N,N-dimethylamino)ethanol] | 0.142 ± 0.004 | 0.2979 ± 0.0068 | 0.59 ± 0.013 | 1.11 ± 0.024 | 1.993 ± 0.041 | 3.435 ± 0.071 | 5.705 ± 0.12 | 9.165 ± 0.19 kPa | 14.29 ± 0.29 | 21.66 ± 0.44 | vapor or sublimation pressure (273.86 K): 0.149 ± 0.0036 kPa; vapor or sublimation pressure (282.97 K): 0.2938 ± 0.0067 kPa and 0.2945 ± 0.0067 kPa; vapor or sublimation pressure (292.89 K): 0.5824 ± 0.013 kPa; vapor or sublimation pressure (292.91 K): 0.5823 ± 0.013 kPa and 0.5822 ± 0.013 kPa; vapor or sublimation pressure (302.89 K): 1.095 ± 0.024 kPa and 1.096 ± 0.024 kPa; vapor or sublimation pressure (312.86 K): 1.963 ± 0.041 kPa; vapor or sublimation pressure (323.03 K): 3.392 ± 0.07 kPa; vapor or sublimation pressure (333.06 K): 5.626 ± 0.11 kPa; vapor or sublimation pressure (343.05 K): 9.047 ± 0.19 kPa; vapor or sublimation pressure (353.04 K): 14.45 ± 0.3 kPa; vapor or sublimation pressure (363.1 K): 21.59 ± 0.43 kPa |
| CCN1CCOCC1 [4-ethylmorpholine] | – | 0.5816 ± 0.013 | 1.083 ± 0.024 | 1.918 ± 0.04 | 3.253 ± 0.067 | 5.304 ± 0.11 | 8.353 ± 0.17 | 12.75 ± 0.26 kPa | 18.92 ± 0.38 | 27.37 ± 0.56 | vapor or sublimation pressure (283.98 K): 0.6293 ± 0.014 kPa; vapor or sublimation pressure (293.93 K): 1.142 ± 0.025 kPa; vapor or sublimation pressure (303.86 K): 1.985 ± 0.041 kPa and 1.989 ± 0.041 kPa; vapor or sublimation pressure (323.78 K): 5.303 ± 0.11 kPa; vapor or sublimation pressure (333.91 K): 8.702 ± 0.18 kPa; vapor or sublimation pressure (343.88 K): 13.07 ± 0.26 kPa; vapor or sublimation pressure (353.9 K): 18.88 ± 0.38 kPa; vapor or sublimation pressure (363.86 K): 28.78 ± 0.58 kPa |
| CC(C)N(C)C [N,N-dimethylisopropylamine] | 6.65 ± 0.14 | 11.11 ± 0.22 | 17.77 ± 0.36 | 27.37 ± 0.55 | 40.76 ± 0.82 | 58.9 ± 1.2 | 82.89 ± 1.7 | – | – | – | vapor or sublimation pressure (274.58 K): 7.183 ± 0.15 kPa and 7.185 ± 0.15 kPa and 7.197 ± 0.15 kPa; vapor or sublimation pressure (283.86 K): 11.39 ± 0.23 kPa; vapor or sublimation pressure (293.81 K): 18.3 ± 0.37 kPa and 18.39 ± 0.37 kPa; vapor or sublimation pressure (303.82 K): 28.18 ± 0.57 kPa; vapor or sublimation pressure (313.79 K): 41.76 ± 0.84 kPa and 41.79 ± 0.84 kPa and 41.8 ± 0.84 kPa; vapor or sublimation pressure (324.02 K): 60.66 ± 1.2 kPa and 60.72 ± 1.2 kPa; vapor or sublimation pressure (334.05 K): 85.36 ± 1.7 kPa [middle of 4 runs] |
| O [water] | 0.5798 ± 0.013 | 1.183 ± 0.026 | 2.277 ± 0.047 | 4.165 ± 0.085 | 7.284 ± 0.15 | 12.23 ± 0.25 | 19.82 ± 0.4 | 31.09 ± 0.63 kPa and 30.82 ± 0.62 kPa | 47.34 ± 0.95 | 70.22 ± 1.4 | – |
